Data on 13 compounds can be found in patent US20260207563A1, “UREA COMPOUNDS AS ACTIVATORS OF POTASSIUM CHANNELS KV7.2/7.3 USEFUL IN THE TREATMENT OF CNS AND PNS DISORDERS” (ANGELINI PHARMA S.P.A., priority 2022, published 2026).

Common to all, as to format: cell-based
Experiment [1] concerns the target T1, heteromeric KV7.2/KV7.3 channels (KCNQ2, KCNQ3) (Homo sapiens, UniProt O43525+O43526).
T1 construct: expressed in transfected cells; host or cells: CHO-K1
The experiment is described as follows: Automated patch-clamp (Sophion Qube 384) potency assay against KV7.2/KV7.3 channels. The settings on record: CHO-K1/Kv7.2/Kv7.3 cells; for EC50: EC50 from concentration-response of shift in Vhalf, 10 concentrations up to 30 μM, read-out: Kv7.2/7.3 EC50; for Kv7.2/7.3 ΔV1/2: maximal shift in the Vhalf from the top of the curve. In a few lines: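 Activator potency: EC50 from 4-parameter logistic fit of mean Vhalf shift across ten 1-in-3 dilutions starting at 30 μM (n=4), with DMSO (typically 0.3%) control. Currents recorded by leak-subtracted whole-cell clamp of stable CHO-K1 KV7.2/KV7.3 cells, held at −80 mV, stepped −100 to +20 mV then 0 mV tails.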
A general note: In patch-clamp work, channel activity is measured electrically.

Experiment [2] addresses T2, homomeric KV7.4 channel (KCNQ4) (Homo sapiens, UniProt P56696).
T2 construct: host or cells: CHO-K1
Nature of the experiment: Automated patch-clamp (Qube) counter-screening assay against KV7.4 channel. The settings on record: CHO-K1 cells expressing KV7.4; class by maximal shift in the Vhalf at 30 μM. The source says:
Assessment of In Vitro Potency Against KV7.4 Channels
A counter-screening assay was also developed on the Qube against the homomeric KV7.4 channel (KCNQ4, Uniprot ID P56696). The cell line used was a stably transfected CHO-K1 with constitutive KV7.4 expression supplied by Charles River Laboratories.
CHO-K1 cells stably expressing KV7.4 channels were maintained in the following culture media: • Hams F-12 with GlutaMAX™ (Life Technologies 31765027), • 10% Fetal clone 2 serum (Perbio Science SH30066.03), and • 250 μg/ml Geneticin™ selective antibiotic (G418, Invitrogen 1013-027).
(§1) Cell maintenance, preparation, recording conditions and voltage protocols were all identical to those above.
(§2) Analysis of Data for Assessment of Potency
(§3) 10 concentrations of test compounds were applied to individual wells in quadruplicate to assess potency as a 1 in 3 dilution series from the maximal concentration of 30 μM. The average shift in the voltage for half activation (Vhalf) for each concentration was used to generate concentration-response curves fitted with a 4-parameter logistic model to estimate the EC50 from the point of inflection of the curve and the maximal shift in the Vhalf from the top of the curve.
(§4) The lower the EC50 value, the higher the potency of the analyzed compound. The selectivity criteria is assigned on the basis of the maximal shift in the Vhalf at 30 μM. […] In Table 3, ND means that selectivity was not determined.

The target in experiment [3] is T3, heteromeric KV7.3/KV7.5 channel (KCNQ3, KCNQ5) (Homo sapiens, UniProt O43525+Q9NR82).
T3 construct: host or cells: HEK293
Nature of the experiment: Automated patch-clamp counter-screening against KV7.3/KV7.5 channel. The settings on record: HEK293 cells expressing Kv7.3/KV7.5; class by maximal shift in the Vhalf at 30 μM. Here is the method:
Assessment of in vitro potency against KV7.3/KV7.5 channels
Counter-screening was also carried out against the heteromeric KV7.3/KV7.5 channel (KCNQ3, Uniprot ID 043525; KCNQ5, Uniprot ID Q9NR82). The cell line used was a stably transfected HEK293 cell line with constitutive Kv7.3 expression and tetracycline inducible KV7.5 expression supplied by Charles River Laboratories.
Cells were maintained in the following culture media: • DMEM/F-12 with GlutaMAX™ (Life Technologies 31331-028), • 10% Tet Systems FCS (Clonetech 631106), • 500 μg/ml Geneticin™ selective antibiotic (G418, Invitrogen 1013-027), • 5 μg/ml Blasticidin S HCl (InvivoGen ant-bl-5), and • 100 μg/ml Zeocin (InvivoGen: ant-zn-5).
as §1, §2, §3, §4

Molecules are shown by their SMILES.

Consider `O=C(NCCC1(C(F)(F)F)CC1)NCc1cc(OCc2ccc(F)cc2)nc(N2CCOCC2)c1` [Compound 27, 1-((2-((4-Fluorobenzyl)oxy)-6-morpholinopyridin-4-yl)methyl)-3-(2-(1-(trifluoromethyl)cyclopropyl)ethyl)urea], for which, in experiment [1], the EC50 turned out to be 8.02 µM and the “Kv7.2/7.3 ΔV1/2” value came to 18.22 mV. In addition, the Kv7.4 selectivity criteria result in experiment [2] is listed as “B (Non-selective compounds showed Kv7.4 and/or Kv7.3/7.5 ΔV1/2 higher than 15 mV (letter B in table 3))”. Besides, the Kv7.3/7.5 selectivity criteria entry in experiment [3] is listed as “B (Non-selective compounds showed Kv7.4 and/or Kv7.3/7.5 ΔV1/2 higher than 15 mV (letter B in table 3))”.

In the case of `O=C(NCCC1(C(F)(F)F)CC1)NCc1cccc(OCC(F)(F)F)n1` [Compound 31, 1-((6-(2,2,2-Trifluoroethoxy)pyridin-2-yl)methyl)-3-(2-(1-(trifluoromethyl)cyclopropyl)ethyl)urea], in experiment [1], the EC50 was 3.08 µM and the “Kv7.2/7.3 ΔV1/2” value is listed as 25.36 mV. In addition, in experiment [2], the Kv7.4 selectivity criteria result was “A (Selective compounds showed Kv7.4 and/or Kv7.3/7.5 ΔV1/2 equal to or lower than 15 mV (letter A in table 3))”. The Kv7.3/7.5 selectivity criteria entry in experiment [3] is listed as “B (Non-selective compounds showed Kv7.4 and/or Kv7.3/7.5 ΔV1/2 higher than 15 mV (letter B in table 3))”.

As to `O=C(NCc1ccnc(OCC(F)(F)F)c1)NCC1(C(F)(F)F)CC1` [Compound 35, 1-((2-(2,2,2-Trifluoroethoxy)pyridin-4-yl)methyl)-3-((1-(trifluoromethyl)cyclopropyl)methyl)urea], in experiment [1], the EC50 is 0.649 µM and the “Kv7.2/7.3 ΔV1/2” value is 38.22 mV. In addition, the Kv7.4 selectivity criteria result in experiment [2] is “B (Non-selective compounds showed Kv7.4 and/or Kv7.3/7.5 ΔV1/2 higher than 15 mV (letter B in table 3))”. In addition, the Kv7.3/7.5 selectivity criteria result in experiment [3] was “B (Non-selective compounds showed Kv7.4 and/or Kv7.3/7.5 ΔV1/2 higher than 15 mV (letter B in table 3))”.

With `O=C(NCc1ccnc(OCC(F)(F)F)c1)NCC1CCCCC1` [Compound 36, 1-(Cyclohexylmethyl)-3-((2-(2,2,2-trifluoroethoxy)pyridin-4-yl)methyl)urea], in experiment [1], the EC50 is 0.435 µM and the “Kv7.2/7.3 ΔV1/2” value was determined as 31.09 mV. Also, the Kv7.4 selectivity criteria result in experiment [2] is “A (Selective compounds showed Kv7.4 and/or Kv7.3/7.5 ΔV1/2 equal to or lower than 15 mV (letter A in table 3))”. For the same compound, the Kv7.3/7.5 selectivity criteria entry in experiment [3] is given as “A (Selective compounds showed Kv7.4 and/or Kv7.3/7.5 ΔV1/2 equal to or lower than 15 mV (letter A in table 3))”.

On to `Cc1ccccc1CNC(=O)NCc1ccnc(OCC(F)(F)F)c1` [Compound 37, 1-(2-Methylbenzyl)-3-((2-(2,2,2-trifluoroethoxy)pyridin-4-yl)methyl)urea], for which, in experiment [1], the EC50 was 0.82 µM and the “Kv7.2/7.3 ΔV1/2” value turned out to be 19.56 mV. Moreover, the Kv7.4 selectivity criteria result in experiment [2] is recorded as “A (Selective compounds showed Kv7.4 and/or Kv7.3/7.5 ΔV1/2 equal to or lower than 15 mV (letter A in table 3))”. Further, the Kv7.3/7.5 selectivity criteria result in experiment [3] is recorded as “A (Selective compounds showed Kv7.4 and/or Kv7.3/7.5 ΔV1/2 equal to or lower than 15 mV (letter A in table 3))”.

As to `O=C(NCCC1(C(F)(F)F)CC1)NCc1cc(OCC(F)(F)F)ncn1` [Compound 38, 1-((6-(2,2,2-Trifluoroethoxy)pyrimidin-4-yl)methyl)-3-(2-(1-(trifluoromethyl)cyclopropyl)ethyl)urea], in experiment [1], the EC50 was 2.02 µM and the “Kv7.2/7.3 ΔV1/2” value was 28.31 mV. For the same compound, the Kv7.4 selectivity criteria entry in experiment [2] was “A (Selective compounds showed Kv7.4 and/or Kv7.3/7.5 ΔV1/2 equal to or lower than 15 mV (letter A in table 3))”. For the same compound, the Kv7.3/7.5 selectivity criteria entry in experiment [3] was “A (Selective compounds showed Kv7.4 and/or Kv7.3/7.5 ΔV1/2 equal to or lower than 15 mV (letter A in table 3))”.

With `Cc1cc(CNC(=O)NCCC2(C(F)(F)F)CC2)cc(OCC(F)(F)F)n1` [Compound 39, 1-((2-Methyl-6-(2,2,2-trifluoroethoxy)pyridin-4-yl)methyl)-3-(2-(1-(trifluoromethyl)cyclopropyl)ethyl)urea], in experiment [1], the EC50 came to 1.47 µM and the “Kv7.2/7.3 ΔV1/2” value turned out to be 21.29 mV. In experiment [2], the Kv7.4 selectivity criteria entry was “A (Selective compounds showed Kv7.4 and/or Kv7.3/7.5 ΔV1/2 equal to or lower than 15 mV (letter A in table 3))”. Moreover, the Kv7.3/7.5 selectivity criteria entry in experiment [3] is given as “A (Selective compounds showed Kv7.4 and/or Kv7.3/7.5 ΔV1/2 equal to or lower than 15 mV (letter A in table 3))”.

Regarding `CC(C)(CCNC(=O)NCc1ccnc(OCC(F)(F)F)c1)C(F)(F)F` [Compound 41, 1-(4,4,4-Trifluoro-3,3-dimethylbutyl)-3-((2-(2,2,2-trifluoroethoxy)pyridin-4-yl)methyl)urea], in experiment [1], the EC50 was 0.428 µM and the “Kv7.2/7.3 ΔV1/2” value is listed as 29.72 mV. Moreover, in experiment [2], the Kv7.4 selectivity criteria result is given as “A (Selective compounds showed Kv7.4 and/or Kv7.3/7.5 ΔV1/2 equal to or lower than 15 mV (letter A in table 3))”. In addition, in experiment [3], the Kv7.3/7.5 selectivity criteria entry is reported as “A (Selective compounds showed Kv7.4 and/or Kv7.3/7.5 ΔV1/2 equal to or lower than 15 mV (letter A in table 3))”.

Regarding `O=C(NCc1cccc(F)c1)NCc1ccnc(OCC(F)(F)F)c1` [Compound 42, 1-(3-Fluorobenzyl)-3-((2-(2,2,2-trifluoroethoxy)pyridin-4-yl)methyl)urea], in experiment [1], the EC50 turned out to be 0.872 µM and the “Kv7.2/7.3 ΔV1/2” value was found to be 16.7 mV. Moreover, in experiment [2], the Kv7.4 selectivity criteria entry is recorded as “A (Selective compounds showed Kv7.4 and/or Kv7.3/7.5 ΔV1/2 equal to or lower than 15 mV (letter A in table 3))”. In addition, the Kv7.3/7.5 selectivity criteria entry in experiment [3] was “A (Selective compounds showed Kv7.4 and/or Kv7.3/7.5 ΔV1/2 equal to or lower than 15 mV (letter A in table 3))”.

With `O=C(NCc1ccnc(OCC(F)(F)F)c1)NC1CCCCC1` [Compound 43, 1-Cyclohexyl-3-((2-(2,2,2-trifluoroethoxy)pyridin-4-yl)methyl)urea], in experiment [1], the EC50 was 0.765 µM and the “Kv7.2/7.3 ΔV1/2” value is 53.72 mV. The Kv7.4 selectivity criteria entry in experiment [2] is “B (Non-selective compounds showed Kv7.4 and/or Kv7.3/7.5 ΔV1/2 higher than 15 mV (letter B in table 3))”. The Kv7.3/7.5 selectivity criteria result in experiment [3] is “B (Non-selective compounds showed Kv7.4 and/or Kv7.3/7.5 ΔV1/2 higher than 15 mV (letter B in table 3))”.

Turning to `O=C(NCCC1(C(F)(F)F)CC1)NCc1ccnc(N2CC(C(F)(F)F)C2)c1` [Compound 44, 1-((2-(3-(Trifluoromethyl)azetidin-1-yl)pyridin-4-yl)methyl)-3-(2-(1-(trifluoromethyl)cyclopropyl)ethyl)urea], in experiment [1], the EC50 was 6.3 µM and the “Kv7.2/7.3 ΔV1/2” value amounted to 17.02 mV. Besides, in experiment [2], the Kv7.4 selectivity criteria result is given as “A (Selective compounds showed Kv7.4 and/or Kv7.3/7.5 ΔV1/2 equal to or lower than 15 mV (letter A in table 3))”. Also, in experiment [3], the Kv7.3/7.5 selectivity criteria entry is “A (Selective compounds showed Kv7.4 and/or Kv7.3/7.5 ΔV1/2 equal to or lower than 15 mV (letter A in table 3))”.

In the case of `Cc1ccccc1NC(=O)NCc1ccnc(OCC(F)(F)F)c1` [Compound 46, 1-(o-Tolyl)-3-((2-(2,2,2-trifluoroethoxy)pyridin-4-yl)methyl)urea], in experiment [1], the EC50 turned out to be 0.432 µM and the “Kv7.2/7.3 ΔV1/2” value was determined as 21.41 mV. Further, in experiment [2], the Kv7.4 selectivity criteria result was “B (Non-selective compounds showed Kv7.4 and/or Kv7.3/7.5 ΔV1/2 higher than 15 mV (letter B in table 3))”. In addition, the Kv7.3/7.5 selectivity criteria entry in experiment [3] was “B (Non-selective compounds showed Kv7.4 and/or Kv7.3/7.5 ΔV1/2 higher than 15 mV (letter B in table 3))”.

Turning to `C[C@H](Oc1cc(CNC(=O)NCCC2(C(F)(F)F)CC2)ccn1)C(F)(F)F` [Compound 47, (S)-1-(2-(1-(Trifluoromethyl)cyclopropyl)ethyl)-3-((2-((1,1,1-trifluoropropan-2-yl)oxy)pyridin-4-yl)methyl)urea], in experiment [1], the EC50 is 0.254 µM and the “Kv7.2/7.3 ΔV1/2” value worked out at 26.23 mV. Further, in experiment [2], the Kv7.4 selectivity criteria entry is “A (Selective compounds showed Kv7.4 and/or Kv7.3/7.5 ΔV1/2 equal to or lower than 15 mV (letter A in table 3))”. Also, the Kv7.3/7.5 selectivity criteria entry in experiment [3] is “A (Selective compounds showed Kv7.4 and/or Kv7.3/7.5 ΔV1/2 equal to or lower than 15 mV (letter A in table 3))”.
